Test results from article PMC12217109, “Development of novel benzamide class I selective lysine deacetylase inhibitors as potent anticancer agents” (Journal of Enzyme Inhibition and Medicinal Chemistry, 2025).
“Also recorded” adds a separate entry of the source.

Key:
[1] = molecular target: HDAC2 (Homo sapiens, UniProt Q92769); experiment: Inhibition of individual recombinant KDACs
[2] = system: A2780 human ovarian tumour xenograft; experiment: A2780 human ovarian tumour xenograft efficacy study; type: in vivo, mice; settings: 100 mg/kg i.p. days 0–4 and 7–11
Description: (§1) Female CD-1 (Crl:CD1-Foxn1^nu) immunodeficient nude mice aged 6–12 weeks were used (Charles River, Margate UK). Mice were kept in stainless steel cages housed in isolation cabinets in an air-conditioned room with regular alternating cycles of light and darkness, receiving Teklad 2018 diet (Envigo, Blackthorn, UK) and water ad libitum. Before experimentation, all mice were allowed to acclimatise for one week to their environment. Environmental enrichment was provided in the form of Perspex “mouse houses”, chewing blocks and exercise wheels.
To assess in vivo compound efficacy, mice were implanted subcutaneously in the abdominal flanks with 2–3 mm^3 -fragments of A2780 human ovarian tumour xenograft tumours, whilst under brief general inhalation anaesthesia (2% isoflurane). Treatments were initiated when tumours reached approximately 32 mm^3 and mice randomly assigned to cohorts (Twelve mice; n = 6 per group). […] Tumour volume, via calliper measurements, and body weight were assessed daily from initiation of treatment. The cut-off points for in-study termination being a > 15% body weight loss over a 72-h period and the tumour not exceeding 15 mm in the longest diameter. All mice were euthanised by isoflurane anaesthesia followed by cervical dislocation […]

[3] = system: acetylated histone H4; experiment: Flow cytometric analysis of histone H4 acetylation in A2780 cells; type: cell-based, human; settings: A2780, 24 h, 5 µM or 10 µM
Method: The method was adapted from Ronzoni et al.[67] as previously described. A2780 cells were exposed to test compounds (0–10 µM) for 24 h, fixed with ice-cold ethanol (70% v/v) and permeabilised in the presence of 0.1% Triton-X. Non-specific protein binding was blocked using normal goat serum prior to incubation with or without primary antibodies raised against either anti-hyperacetylated Histone H4 (Penta) antibody (Upstate Biotechnology, USA) or acetylated tubulin (Sigma-Aldrich, UK), followed by incubation with FITC-conjugated secondary antibody (Dako). Cells were incubated in propidium iodide (PI) staining buffer (PBS with 50 µg/ml PI and 10 µg/ml RNase A) and subsequently analysed by flow cytometry (BD FACSCalibur; Becton Dickinson, UK). At least 15 000 events per sample were acquired and expression determined based on the detection of FITC fluorescence through the FL1 channel (530/30 nm bandpass optical filter), with cell doublets discriminated by forward/side scatter and background fluorescence omitted via comparison to unlabelled controls. Expression analysis was performed using CellQuest™ software (Becton Dickinson, UK).

[4] = Maximum tolerated dose evaluation in nude mice; type: in vivo
Description: as §1
For evaluation of the maximum tolerated dose (MTD), two mice were treated at each of the three dose levels evaluated ([…]). […] Mice were observed daily for signs of deleterious effects and bodyweight measured frequently. […] If no deleterious effects were seen after at least 14 days of study, then the animals were euthanised by isoflurane anaesthesia followed by cervical dislocation, and the dose considered non-toxic.

[5] = system: leukemic cell lines; experiment: NCI-60 cytotoxicity screen, leukaemic cell lines; type: cell-based; settings: Homo sapiens; NCI-60, range over cell lines; read-out: cytotoxicity IC50 against leukemic cell lines
Description: Compounds 3–7 were submitted to the US National Cancer Institute (NIH, Bethesda, Maryland) for screening against the NCI-60 panel of human cancer cell lines, as per standard protocol.

[6] = molecular target: HDAC6 (Homo sapiens, UniProt Q9UBN7); experiment: Inhibition of individual recombinant KDACs
HDAC6, sequence (Q9UBN7 whole entry): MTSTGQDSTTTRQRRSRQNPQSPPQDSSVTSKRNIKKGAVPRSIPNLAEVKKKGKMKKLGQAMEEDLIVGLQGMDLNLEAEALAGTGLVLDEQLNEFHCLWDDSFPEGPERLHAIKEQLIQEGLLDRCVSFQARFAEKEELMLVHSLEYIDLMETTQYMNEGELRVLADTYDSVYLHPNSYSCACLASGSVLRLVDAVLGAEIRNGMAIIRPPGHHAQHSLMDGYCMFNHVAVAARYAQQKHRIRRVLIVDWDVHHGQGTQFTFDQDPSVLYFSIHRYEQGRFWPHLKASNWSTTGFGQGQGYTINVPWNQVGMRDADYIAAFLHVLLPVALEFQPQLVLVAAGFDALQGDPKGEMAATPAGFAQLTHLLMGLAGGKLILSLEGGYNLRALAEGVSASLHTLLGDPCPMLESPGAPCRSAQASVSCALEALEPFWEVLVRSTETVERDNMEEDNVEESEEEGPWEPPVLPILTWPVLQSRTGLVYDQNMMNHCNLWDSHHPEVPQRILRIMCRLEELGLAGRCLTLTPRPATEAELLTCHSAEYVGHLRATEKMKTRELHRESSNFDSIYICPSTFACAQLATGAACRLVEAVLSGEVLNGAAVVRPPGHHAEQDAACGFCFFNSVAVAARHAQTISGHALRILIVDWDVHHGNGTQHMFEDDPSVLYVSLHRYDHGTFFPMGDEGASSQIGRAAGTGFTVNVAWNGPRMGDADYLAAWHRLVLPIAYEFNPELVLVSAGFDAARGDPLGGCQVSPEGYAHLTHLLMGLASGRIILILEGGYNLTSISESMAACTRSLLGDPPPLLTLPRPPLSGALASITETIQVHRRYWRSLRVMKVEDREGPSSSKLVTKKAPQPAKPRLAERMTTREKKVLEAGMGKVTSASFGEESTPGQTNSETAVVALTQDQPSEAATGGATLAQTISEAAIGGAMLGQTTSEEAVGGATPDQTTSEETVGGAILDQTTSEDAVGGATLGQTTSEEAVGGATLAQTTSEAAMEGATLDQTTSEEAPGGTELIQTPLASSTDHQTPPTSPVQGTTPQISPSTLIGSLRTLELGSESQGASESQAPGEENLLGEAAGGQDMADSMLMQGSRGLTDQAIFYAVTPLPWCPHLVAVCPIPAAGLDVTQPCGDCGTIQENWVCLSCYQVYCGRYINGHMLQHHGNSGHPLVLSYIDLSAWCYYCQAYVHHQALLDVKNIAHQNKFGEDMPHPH

[7] = molecular target: HDAC5 (Homo sapiens, UniProt Q9UQL6); experiment: Inhibition of individual recombinant KDACs
HDAC5, sequence (Q9UQL6 whole entry): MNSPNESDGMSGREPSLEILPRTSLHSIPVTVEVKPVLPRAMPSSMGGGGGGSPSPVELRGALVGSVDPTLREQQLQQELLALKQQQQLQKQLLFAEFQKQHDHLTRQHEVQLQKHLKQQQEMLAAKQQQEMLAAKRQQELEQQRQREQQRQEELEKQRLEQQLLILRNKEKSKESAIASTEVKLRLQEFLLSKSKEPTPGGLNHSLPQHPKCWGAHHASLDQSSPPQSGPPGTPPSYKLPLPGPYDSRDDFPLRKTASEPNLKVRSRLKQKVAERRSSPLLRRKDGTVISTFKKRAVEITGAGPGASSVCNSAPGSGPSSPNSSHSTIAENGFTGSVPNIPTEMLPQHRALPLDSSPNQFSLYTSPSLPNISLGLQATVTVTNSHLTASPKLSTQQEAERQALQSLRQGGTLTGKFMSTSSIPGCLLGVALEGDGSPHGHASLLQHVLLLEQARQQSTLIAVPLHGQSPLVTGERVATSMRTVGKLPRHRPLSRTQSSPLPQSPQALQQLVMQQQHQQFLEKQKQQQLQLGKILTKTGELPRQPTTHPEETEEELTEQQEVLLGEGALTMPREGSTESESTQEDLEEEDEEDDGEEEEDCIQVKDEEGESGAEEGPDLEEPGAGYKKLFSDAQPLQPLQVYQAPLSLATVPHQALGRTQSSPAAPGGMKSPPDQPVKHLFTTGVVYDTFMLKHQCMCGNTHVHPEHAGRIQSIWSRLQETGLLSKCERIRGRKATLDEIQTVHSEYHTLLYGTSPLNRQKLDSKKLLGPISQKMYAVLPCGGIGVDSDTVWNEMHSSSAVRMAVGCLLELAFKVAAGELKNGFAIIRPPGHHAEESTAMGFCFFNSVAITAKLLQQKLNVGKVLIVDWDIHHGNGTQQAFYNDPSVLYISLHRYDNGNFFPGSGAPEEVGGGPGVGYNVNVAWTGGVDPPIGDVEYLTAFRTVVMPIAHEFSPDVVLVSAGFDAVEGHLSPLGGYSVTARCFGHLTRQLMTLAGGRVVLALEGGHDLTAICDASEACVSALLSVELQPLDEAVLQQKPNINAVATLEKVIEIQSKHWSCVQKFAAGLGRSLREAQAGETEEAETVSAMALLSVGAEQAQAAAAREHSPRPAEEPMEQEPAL

[8] = system: hyperacetylated Histone H4; experiment: Western blot of histone H4 hyperacetylation in A2780 cells; type: cell-based, human; settings: A2780, 10 µM, 2, 4, 16 hrs
Method: Cells were then washed with ice-cold phosphate buffered saline (PBS) and lysed and sonicated in RIPA buffer [150 mM NaCl, 50 mM TrisHCl pH 7.4, 5 mM EDTA, 1% NP40, 0.1% SDS, 1 mM phenylmethylsulphonyl fluoride (PMSF) and proteinase inhibitor cocktail (1x)]. Cellular debris was removed by centrifugation (12,000 × g for 20 min, 4 °C) and protein concentration of the supernatants determined by Bradford Assay. Proteins (30 μg protein per lane) were resolved by SDS-PAGE, then transferred to the PVDF membrane (Hybond-P; Amersham, UK). For band size determination, Amersham Full-Range Rainbow™ Molecular Weight Markers (#RPN800) were loaded adjacent to the proteins within the gel. Non-specific protein binding on the PVDF membrane was blocked using 5% non-fat milk powder and the membranes probed separately with either anti-hyperacetylated Histone H4 (Penta) antibody (Upstate Biotechnology, USA), acetylated tubulin or β-actin antibodies (Sigma-Aldrich, UK). This was followed by incubation with horseradish peroxidase (HRP)-conjugated secondary antibodies (Dako, USA), with immunoreactive bands detected by enhanced chemiluminescence (ECL Plus detection kit; Amersham, UK).

[9] = molecular target: HDAC4 (Homo sapiens, UniProt P56524); experiment: Inhibition of individual recombinant KDACs
HDAC4, sequence (P56524 whole entry): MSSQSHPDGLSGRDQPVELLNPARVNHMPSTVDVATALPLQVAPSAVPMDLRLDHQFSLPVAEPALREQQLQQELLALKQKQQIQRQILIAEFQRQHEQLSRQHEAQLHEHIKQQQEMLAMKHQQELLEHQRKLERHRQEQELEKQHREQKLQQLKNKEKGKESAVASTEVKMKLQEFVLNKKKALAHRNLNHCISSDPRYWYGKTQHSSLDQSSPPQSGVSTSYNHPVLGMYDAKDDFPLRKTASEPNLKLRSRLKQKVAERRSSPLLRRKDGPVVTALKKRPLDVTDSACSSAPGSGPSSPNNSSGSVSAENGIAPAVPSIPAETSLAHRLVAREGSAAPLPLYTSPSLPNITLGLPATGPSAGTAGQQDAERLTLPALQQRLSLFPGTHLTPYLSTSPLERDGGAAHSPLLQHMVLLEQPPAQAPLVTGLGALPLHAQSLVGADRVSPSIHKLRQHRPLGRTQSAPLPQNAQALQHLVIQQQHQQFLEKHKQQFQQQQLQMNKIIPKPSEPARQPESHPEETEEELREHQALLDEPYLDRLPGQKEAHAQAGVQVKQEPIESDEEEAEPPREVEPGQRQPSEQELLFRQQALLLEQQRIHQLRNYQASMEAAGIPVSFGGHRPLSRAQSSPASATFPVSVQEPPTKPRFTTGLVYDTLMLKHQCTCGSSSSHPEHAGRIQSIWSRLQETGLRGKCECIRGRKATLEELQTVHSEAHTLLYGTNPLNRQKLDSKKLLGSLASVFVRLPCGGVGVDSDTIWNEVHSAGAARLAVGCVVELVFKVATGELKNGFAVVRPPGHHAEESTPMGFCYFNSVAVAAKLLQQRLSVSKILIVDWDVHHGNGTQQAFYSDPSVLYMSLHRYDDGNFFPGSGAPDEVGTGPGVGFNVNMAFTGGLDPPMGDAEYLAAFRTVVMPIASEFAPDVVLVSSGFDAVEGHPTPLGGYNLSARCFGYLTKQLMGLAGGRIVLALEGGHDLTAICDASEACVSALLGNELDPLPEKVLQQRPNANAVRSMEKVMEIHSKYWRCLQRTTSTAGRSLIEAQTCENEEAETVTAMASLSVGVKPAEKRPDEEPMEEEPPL

[10] = molecular target: HDAC10 (Homo sapiens, UniProt Q969S8); experiment: Inhibition of individual recombinant KDACs
HDAC10, sequence (Q969S8 whole entry): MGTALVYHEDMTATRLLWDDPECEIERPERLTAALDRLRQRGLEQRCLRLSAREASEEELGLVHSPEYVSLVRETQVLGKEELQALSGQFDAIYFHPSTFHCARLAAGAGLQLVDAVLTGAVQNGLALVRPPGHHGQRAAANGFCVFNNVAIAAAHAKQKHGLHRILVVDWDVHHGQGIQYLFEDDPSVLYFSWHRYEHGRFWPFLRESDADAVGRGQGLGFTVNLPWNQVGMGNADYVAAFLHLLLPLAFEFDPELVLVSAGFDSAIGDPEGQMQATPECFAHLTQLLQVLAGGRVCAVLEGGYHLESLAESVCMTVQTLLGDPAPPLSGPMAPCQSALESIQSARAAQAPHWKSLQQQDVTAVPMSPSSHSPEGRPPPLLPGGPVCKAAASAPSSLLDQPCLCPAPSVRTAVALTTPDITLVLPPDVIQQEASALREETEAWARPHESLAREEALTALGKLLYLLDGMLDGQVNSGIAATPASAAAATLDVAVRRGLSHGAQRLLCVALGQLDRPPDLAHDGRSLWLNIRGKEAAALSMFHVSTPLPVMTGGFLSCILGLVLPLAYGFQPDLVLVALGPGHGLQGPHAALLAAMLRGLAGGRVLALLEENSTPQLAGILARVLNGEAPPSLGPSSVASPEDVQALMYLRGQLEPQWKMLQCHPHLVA

HDAC2, sequence (Q92769 whole entry): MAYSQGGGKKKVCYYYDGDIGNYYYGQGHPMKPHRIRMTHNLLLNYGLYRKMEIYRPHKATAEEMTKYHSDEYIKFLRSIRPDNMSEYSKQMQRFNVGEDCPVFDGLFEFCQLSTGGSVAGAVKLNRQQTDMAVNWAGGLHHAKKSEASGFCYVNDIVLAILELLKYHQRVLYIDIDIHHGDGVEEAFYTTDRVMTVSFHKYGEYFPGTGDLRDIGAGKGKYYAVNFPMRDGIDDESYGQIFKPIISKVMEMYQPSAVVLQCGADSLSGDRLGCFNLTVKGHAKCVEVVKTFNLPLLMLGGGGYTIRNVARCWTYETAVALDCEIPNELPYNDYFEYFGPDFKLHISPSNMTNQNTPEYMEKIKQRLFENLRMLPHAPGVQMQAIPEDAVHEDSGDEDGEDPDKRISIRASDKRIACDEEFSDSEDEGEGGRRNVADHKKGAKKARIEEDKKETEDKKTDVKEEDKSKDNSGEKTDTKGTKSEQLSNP

| Structure (SMILES) | IC50 [1] [µM] | weight loss / toxicity during treatment [2] | acetylated histone H4 (flow cytometry) [3] | systemic toxicity ([4]; 100 mg/kg i.p., 5 consecutive days) | MTD ([4]; female, CD-1 nude (Crl:CD1-Foxn1^nu), mouse, in vivo, ip, single dose on 5 consecutive days) [mg/kg] | IC50 [5] [µM] | IC50 [6] [µM] | IC50 [7] [µM] | histone H4 hyperacetylation (western blotting) [8] | IC50 [9] [µM] | IC50 [10] [µM] |
| --- | --- | --- | --- | --- | --- | --- | --- | --- | --- | --- | --- |
| C=C(CN1CCN(c2cccc(C(F)(F)F)n2)CC1)c1ccc(C(=O)Nc2ccccc2N)cc1 [Compound 7, N-(2-aminophenyl)-4–(3-(4–(6-(trifluoromethyl)pyridin-2-yl)piperazin-1-yl)prop-1-en-2-yl)benzamide] | 3.97 | No significant weight loss or overt toxicity; also recorded: did not induce significant weight loss or detrimental toxicity | Increased acetylated histone H4; also recorded: Increased induction in histone H4 acetylation | No systemic toxicity | 100 | 0.28 to 0.86 | > 10 | > 10 | Time dependent increase in Histone H4 acetylation; also recorded: time-dependent increase in histone H4 hyperacetylation | > 10 | > 10 |
| Nc1ccccc1NC(=O)c1ccc(CNC(=O)OCc2cccnc2)cc1 [Compound 1, Entinostat, reference compound] |  |  | Increased acetylated histone H4 |  |  |  |  |  |  |  |  |
